SMILES strings stand for the structures. ± gives the expanded uncertainty stated by the source.

Three molecules from the NIST ThermoML archive (doi:10.1021/je4006739) can be followed below.

The conditions of the first data set: 293.15 K; 101.33 kPa; Liquid; Vibrating tube method.
As for `CCOCCO` [2-ethoxyethan-1-ol], the mass density (in general, the mass of a sample divided by its volume) was found to be 928.92 ± 0.23 kg/m3.

`C[S+](C)[O-]` [dimethyl sulfoxide]: the mass density was 1092.48 ± 0.27 kg/m3.

Consider `CCc1ccccc1` [ethylbenzene], for which the mass density was determined as 863.64 ± 0.23 kg/m3.

Still in this data set, the particulars now being: Liquid; Ebulliometric method (Recirculating still).
For the molecule `CCOCCO` [2-ethoxyethan-1-ol], the Normal boiling temperature is 135.20 ± 1 °C.

Regarding `C[S+](C)[O-]` [dimethyl sulfoxide], the Normal boiling temperature was determined as 189.10 ± 1 °C.

With `CCc1ccccc1` [ethylbenzene], the Normal boiling temperature came to 136.10 ± 1 °C.
